Assay results published in patent publication US9445596B2, “Small molecule compounds for the control of nematodes” (California Institute of Technology, priority 2011, dated 2016).
“Also recorded” adds a separate entry of the source.

How the values were obtained:
P. pacificus = experiment: Dauer formation assay; format: in vivo, Pristionchus pacificus; conditions: even at very high concentrations (20 μM)
Procedure: Dauer formation assays were performed as described in Ogawa et al., Curr. Biol. 19:67-71 (2009), which is hereby incorporated by reference in its entirety, using heat- or kanamycin-killed E. coli OP50. Synthetic compounds were dissolved in ethanol (0.5 mM, stock solution) and combined with water to make a […] and subsequently added to 3 mL NGM-agar without peptone ([…], 0.3, 0.1 μM final concentrations).

[1] = system: P. pacificus strain RSB020; experiment: Mouth-form dimorphism assay; format: in vivo, Pristionchus pacificus; conditions: high concentrations
Procedure: Mouth-form dimorphism assays were performed using P. pacificus strain RSB020. The synthetic compounds dissolved in ethanol (0.5 mM) were diluted with water to make 100 μl solution and subsequently added to 3 mL NGM-agar (1 μM final concentration). The assay plates were seeded with 50 μl OP50 culture in LB medium and incubated overnight at 20° C. to allow bacterial growth. Each replicate included the progeny of two mothers, which were picked as adult hermaphrodites of a consistent age (carrying 4-6 eggs) and which were all from the same P. pacificus culture plate. Following the placement of mothers on assay plates, plates were kept at 20° C. for six days, such that the entire broods were adults at the time of screening. A random sample of 50 hermaphrodite progeny was screened per plate. All animals were screened by differential interference contrast (DIC) microscopy on a Zeiss Axiskop. The following discrete characters were used to discriminate eurystomatous from stenostomatous individuals, respectively: (1) claw-shaped vs. flint-shaped (i.e. dorsoventrally symmetrical) dorsal tooth; (2) presence vs. absence of a subventral tooth; (3) strongly vs. weakly sclerotized stomatal walls. No intermediate mouth-forms were observed. Experiments were conducted in triplicate for each treatment. In assays of responses to compounds of several concentrations (1, 0.3, 0.1, 0.03, 0.01 μM final concentrations), experiments were performed as described above, with the following modifications. To allow greater resolution of responses to lower concentrations, 60 randomly screened individuals in each of five replicates per concentration per compound were assayed. All concentration-curve experiments were performed in parallel using mothers picked randomly from the same two source populations. To prepare large numbers of individual mothers for these experiments, source populations were established from virgin hermaphrodites to constrain the presence of males and were conditioned to well-fed and ambient conditions for at least one generation before mothers were picked for the assays.

[2] = system: several of the tested nematode species; experiment: Retention assay, several nematode species; format: in vivo; conditions: 1 nM, 1 μM and 1 mM tested
Procedure: (§1) OP50 E. coli was grown on a standard 5 cm agar plate (made with standard Nematode Growth Medium). The bacterial lawn was 16 mm in diameter and was grown overnight at 20° C. before being used in trials. Two 4 mm spots (0.6 μL) were placed on opposite sides of the bacterial lawn (using a transparent template to guide spot placement), and several minutes elapsed for the liquid to settle in before placing nematodes down on the assay. Recording began immediately upon worm placement. 0.6 μL of the control was placed on one side of the lawn, and 0.6 μL of the experimental cue was placed on the other side of the lawn, changing the location of the cue throughout trials between left/right and top/bottom to avoid bias.
Nematodes were isolated by gender at the L4 stage the day before being used in trials as developed adults. Worms were evenly divided and placed at two points equidistant from the foci of the scoring region. Trials were recorded for 20 minutes, and frames were collected for analysis at 1 frame per second. Results were averaged from at least three different trials. For every nematode species in this study, a different total number of worms (using water in both scoring regions) was tested to determine the minimum number of worms necessary for consistent unbiased results over a 20 minute trial. The total number of worms used in the multiple species assays depended on that species' optimal parameters. 10 worms were used for P. redivivus males and females, 20 worms were used for C. elegans males and O. dolichuridae males, and 14 worms were used for S. glaseri males. The Automated Software was used to compare worm occupancy in each scoring region over time, and the Chemotaxis Index (Bargmann et al., Cell 74:515-27 (1993), which is hereby incorporated by reference in its entirety) was adapted to score preference or avoidance to each ascaroside.
A video camera attached to the microscope produced a digital video stream, which was then analyzed. The ratio of the time the average worm spent in each region of interest was calculated for every trial. For ease of implementation, all worms in a single experiment were assumed to be roughly the same size. Thus worm pixels were counted instead of whole worms, allowing fractions of a worm in the region of interest to be taken into account. It also eliminated the need for a shape-based worm identification algorithm, and allowed each frame to be analyzed independently. A band-pass filter was applied to each frame to eliminate the effect of uneven lighting and also accentuate the worms against the background. The worm was then identified after thresholding the filtered image. Throughout each experiment, the locations and sizes of the regions of interest were known. Through the filtering described above, it is known which pixels are occupied by worms and which ones are not. Thus, the ratio of worm-pixels to all pixels inside the region of interest can be calculated to produce the worm-occupancy ratio. This calculation was done for every frame, giving a plot output of worm-occupancy ratio vs. time for each region.

males = experiment: Bioassay of HPLC-purified peak; format: in vivo; conditions: purified peak with retention time of 9.7 minutes
Procedure: A Thermo Finnigan LCQ Deca XP Max was used with electrospray ionization in positive ion mode in the 50-1000 AMU range. The Thermo Separation spectra HPLC system consisted of a P4000 quaternary pump, an AS 3000 auto sampler, and a UV 6000 diode array detector. The solvents were water with (a) 0.1% formic acid and (b) 90% acetonitrile-10% water with 10 mM ammonium formate. The column temperature was maintained at 60° C. and a solvent flow of 1.0 ml/min. The reversed phase column (PLRP-S Polymeric reversed phase column, 250×4.6 mmid, Varian Inc.) was eluted with a solvent composition starting with 90:10 (a,b) for 2 minutes, followed by a gradient to 5:95 in 20 minutes and an additional 5 minutes at 5:95. Ultraviolet absorption was monitored at 190 and 400 nm. Solvent flow between the ultraviolet detector and mass spectroscopy electrospray interface split 9:1 with a low-volume micro needle P450 splitter valve (Upchurch Scientific, Oak Harbor, Wash.), making it possible to obtain spectra of eluted compounds and simultaneously collect 90% of the injected material for bioassay. […] This was confirmed to be ascr#1 using NMR analysis.

C. elegans males = experiment: Retention assay, C. elegans males; format: in vivo
Procedure: (§2) OP50 E. coli was grown on a standard 5 cm agar plate (made with standard Nematode Growth Medium). The bacterial lawn was 16 mm in diameter and was grown overnight at 20° C. before being used in trials. Two 4 mm spots (0.6 μL) were placed on opposite sides of the bacterial lawn (using a transparent template to guide spot placement), and several minutes elapsed for the liquid to settle in before placing nematodes down on the assay. Recording began immediately upon worm placement. […]
(§3) Nematodes were isolated by gender at the L4 stage the day before being used in trials as developed adults. […] Trials were recorded for 20 minutes, and frames were collected for analysis at 1 frame per second. […]
(§4) A video camera attached to the microscope produced a digital video stream, which was then analyzed. The ratio of the time the average worm spent in each region of interest was calculated for every trial. […] Thus worm pixels were counted instead of whole worms, allowing fractions of a worm in the region of interest to be taken into account. It also eliminated the need for a shape-based worm identification algorithm, and allowed each frame to be analyzed independently. […] Thus, the ratio of worm-pixels to all pixels inside the region of interest can be calculated to produce the worm-occupancy ratio. […]

[3] = system: P. redivivus males and females; experiment: Retention assay, P. redivivus; format: in vivo
Procedure: as §1
Nematodes were isolated by gender at the L4 stage the day before being used in trials as developed adults. Worms were evenly divided and placed at two points equidistant from the foci of the scoring region. Trials were recorded for 20 minutes, and frames were collected for analysis at 1 frame per second. Results were averaged from at least three different trials. For every nematode species in this study, a different total number of worms (using water in both scoring regions) was tested to determine the minimum number of worms necessary for consistent unbiased results over a 20 minute trial. The total number of worms used in the multiple species assays depended on that species' optimal parameters. […]
as §4

S. glaseri males = experiment: Retention assay, S. glaseri males; format: in vivo
Procedure: as §2, §3, §4

C. elegans [4] = conditions: cited from earlier work
C. elegans [5] = conditions: Srinivasan et al. 2012; cited from earlier work
C. elegans [6] = experiment: Aggregation assay; format: in vivo
Procedure: Aggregation behavior of worms was measured using assays reported in de Bono & Bargmann, Cell 94:679-89 (1998), which is hereby incorporated by reference in its entirety. Aggregation assays were conducted on standard NGM plates. Plates containing indole ascarosides were made by adding the indole ascaroside stock solution to the NGM media before they were poured onto the plates. These plates were dried at room temperature for 2 to 3 days. Control plates were treated similarly, except that ethanol solutions instead of icas solutions were added to the plates, corresponding to the amount of ethanol introduced via the icas solutions. Final ethanol concentrations of the plates were below 0.1% for all conditions. After drying, both control plates and plates containing indole ascarosides were seeded with 150 μl of an overnight culture of E. coli OP50 using a micropipette, and were allowed to dry for 2 days at room temperature. For “low worm density” experiments, 20 worms were placed onto the lawn and left at 20° C. for 3 hours. For “high worm density” experiments, approximately 120 worms were placed onto the bacterial lawn and left at 20° C. for 3 hours. Aggregation behavior was quantified as the number of animals that were in touch with two or more animals at greater than 50% of their body length.

[7] = system: C. elegans hermaphrodites and males; experiment: Spot attraction assay; format: in vivo
Procedure: The spot attraction assays were conducted according to a previously reported method (Pungaliya et al., PNAS 106:7708-13 (2009); Srinivasan et al., Nature 454:1115-18 (2008), which are hereby incorporated by reference in their entirety). For both C. elegans hermaphrodites and males, 50-60 worms were harvested daily at the fourth larval stage (L4) and stored segregatedly by sex at 20° C. overnight, to be used as young adults the following day. For the competition experiments, two conditions were used: 120 nM ascr#3 and 10 nM icas#3 (Condition 1), or 12 μM ascr#3 and 1 μM icas#3 (Condition 2) in water containing 10% ethanol. Aliquots were stored at −20° C. in 20 μL tubes. 10% ethanol in water was used as control.
Attraction assays with hbas#3 were conducted as previously reported (Srinivasan et al., Nature 454:1115-18 (2008); Pungaliya et al., Proc. Natl. Acad. Sci. U.S.A. 106:7708-13 (2009), which are hereby incorporated by reference in their entirety). For the attraction assays, 50-60 hermaphrodite worms were harvested daily at the early fourth larval stage (L4) and stored at 20° C. overnight to be used as young adults the following day. Hbas#3 was dissolved in water containing 10% ethanol. Aliquots were stored at −20° C. in 20 μL tubes. 10% ethanol in water was used as control.

[8] = Butcher et al., Org. Lett. 2009

Row | Compound | dauer induction (P. pacificus) | induction of the eurystomatous mouth form [1] | preference for areas conditioned by the ascaroside [2] | activity in the bioassay (males) | concentration of conditioned regions preferred (activity threshold) (C. elegans males) [µM] | concentration of conditioned regions preferred (activity threshold) ([3]; males) [mM] | concentration of conditioned regions preferred (activity threshold) (S. glaseri males) [mM] | dauer-inducing activity (C. elegans [4]; [8]) | shape of dauer response curve (C. elegans [4]; [8]) | promotion of dauer entry (C. elegans [4]; shown previously) | aggregation in C. elegans (C. elegans [5]) | response of P. redivivus females ([3]; females) | response of P. redivivus males ([3]; males) | concentrations at which active as hermaphrodite attractants and aggregation signals (C. elegans [6]; in vivo) | aggregation of hermaphrodites (C. elegans [6]; low worm density, solitary and social hermaphrodites) | attraction in the spot attraction assay ([7]; 1 pmol, N2 hermaphrodites and him-5 males) | attraction in the spot attraction assay ([7]; high concentrations, males and hermaphrodites) | attraction of hermaphrodites ([7]; low concentrations, N2 hermaphrodites) | attraction of males ([7]; low concentrations, males)
1 | C[C@H](CCCCC(=O)O)O[C@@H]1O[C@@H](C)[C@H](O)C[C@H]1O [ascr#1, reference compound] | does not induce dauer formation; also recorded: no dauer-inducing activity | weaker induction of the eurystomatous mouth form | preferred | active to males |  |  |  |  |  |  |  |  |  |  |  |  |  |  | 
2 | CC1O[C@@H](O[C@H](C)CCCCCCC(=O)O)C(O)C[C@H]1O (some centres unmarked) [ascr#10] |  |  | preferred |  | 1 | 1 | 1 |  |  |  |  |  |  |  |  |  |  |  | 
3 | C[C@H](CCC(=O)O)O[C@@H]1O[C@@H](C)[C@H](OC(=O)c2c[nH]c3ccccc23)C[C@H]1O [icas#9, reference compound] |  |  |  |  |  |  |  | moderate dauer-inducing activity | bell-shaped response curve | individually promote dauer entry | aggregating stimulant | repeled | elicited no response | femtomolar to picomolar | increased aggregation of both solitary and social hermaphrodites | attractive to both C. elegans sexes | attracted both males and hermaphrodites | strongly attracted | not attracted; also recorded: not males
